Tests used:
MDA-MB-231 cells [1] = experiment: Detection of intracellular ROS (DCFH-DA, flow cytometry); type: cell-based, human; conditions: 72 h, control 4.56%
Description: MDA-MB-231 cells were seeded overnight in 6-well plates, treated with different concentrations of 22e (0, 0.475, 0.95 and 1.9 μM) for another 72 h. After digestion and washing, the cell suspension was prepared and cultured with fluorescent probe 2′,7′-dichlorodihydrofluorescein diacetate (DCFH-DA, Sigma-Aldrich, Darmstadt, Germany) at 37 °C for 20 min. Then, after the cells were washed, the intracellular reactive oxygen species (ROS) was measured by flow cytometry at 488 nm (excitation wavelength) and 530 nm (emission wavelength).

MDA-MB-231 cells [2] = experiment: Wound healing assay (migration); type: cell-based, human; conditions: 22e 0.475, 0.95 and 1.9 μM, 24 h, versus untreated cells
Description: MDA-MB-231 cells were cultured in 6-well plates at 37 °C for 24 h. After the cells attached, different concentrations of 22e (0, 0.475, 0.95 and 1.9 μM) were added. Sterile pipette tips were used to scratch evenly in 6-well plates, the floating cells were washed away with PBS, and the fresh culture medium was replaced. After incubation for 24 h, the cells were photographed and the migration distance was measured.

MDA-MB-231 cells [3] = experiment: Comet assay (DNA damage); type: cell-based, human; conditions: 72 h, control 0.48%
Description: DNA damage was detected by Comet Assay Kit (Keygen, Nanjing, China) according to the manufacturer’s instructions. Briefly, MDA-MB-231 cells were treated with 22e (0, 0.475, 0.95 and 1.9 μM) for 72 h. The collected cells were fixed on CometSlide for 15 min at 4 °C. Subsequently, the cells were incubated in lysis solution at 4 °C for 90 min, the slides were electrophoresed for 20 min, fixed in ethanol for 5 min, and stained with Vista Green DNA Dye. Finally, the data were got by fluorescence microscope.

MDA-MB-231 cells [4] = experiment: Transwell assay (invasion); type: cell-based, human; conditions: 22e 0.475, 0.95 and 1.9 μM, 24 h
Description: MDA-MB-231 cells were seeded in 24-well transwell plates upper chambers, different concentrations of 22e (0, 0.475, 0.95 and 1.9 μM) were incubated on the lower surface for 24 h. The cells in the upper surface of the membrane were removed, and the migrated or invaded cells of the membranes bottom surface were placed in 0.1% crystal violet for staining for 30 min. Finally, the cells that migrated or invaded of the chamber bottom were photographed and counted.

[5] = tested on: TNBC cell line MDA-MB-231; experiment: CCK-8 assay, antiproliferative activity against MDA-MB-231; conditions: Homo sapiens, MDA-MB-231, 72 h, read-out: IC50 MDA-MB-231
MDA-MB-231 cells [6] = experiment: Adhesion assay; type: cell-based, human; conditions: 22e 0.475, 0.95 and 1.9 μM, 72 h
Description: Different concentrations of 22e (0, 0.475, 0.95 and 1.9 μM) were used to treat MDA-MB-231 cells for 72 h. Then the serum-free medium containing CaM stain was added, cell suspension (100 μL) was cultured to 96-well plates (2000 cells/well) for 1 h. Finally, plates were washed with PBS, fixed with 3.7% formaldehyde, washed with PBS again, and took pictures with fluorescence microscope.

MDA-MB-231 cells [7] = experiment: Cell apoptosis assay (annexin V-FITC/PI, flow cytometry); type: cell-based, human; conditions: 72 h, control 5.85%
Description: MDA-MB-231 cells were cultured in 6-well plates at 37 °C for 24 h, and then different concentrations of 22e (0, 0.475, 0.95 and 1.9 μM) were added. After 72 h of incubation, the cells were collected and suspended in binding buffer (500 μL). Finally, annexin V-fluorescein isothiocyanate (Annexin V-FITC, 5 μL) and propidium iodide (PI, 5 μL) were added, and the reaction was kept at room temperature in the dark for 10 min, then cell apoptosis was measured by flow cytometry.

MDA-MB-231 cells [8] = experiment: Cell-cycle analysis (PI staining, flow cytometry); type: cell-based, human; conditions: for cells in G2/M phase / cells in S phase / cells in G1 phase: 72 h; for cells in G2/M phase: control 11.04%; for cells in S phase: control 36.51%; for cells in G1 phase: control 52.44%

COC(=O)[C@H](Cc1ccc(N(CCCl)CCCl)cc1)NC(=O)CCCC(=O)NCc1coc2ccc(OC)cc2c1=O [Compound 22e, Methyl (S)-3-(4-(bis(2-chloroethyl)amino)phenyl)-2–(5-(((6-methoxy-4-oxo-4H-chromen-3-yl)methyl)amino)-5-oxopentanamido)propanoate]
DCFH-DA positive cells ratio (MDA-MB-231 cells [1]; 22e 0.475 μM): 8.05% | DCFH-DA positive cells ratio (MDA-MB-231 cells [1]; 22e 0.95 μM): 18.47% | DCFH-DA positive cells ratio (MDA-MB-231 cells [1]; 22e 1.9 μM): 45.98% | wound closure distance (migration), in words (MDA-MB-231 cells [2]): significantly shortened | tail DNA percentage (MDA-MB-231 cells [3]; 22e 0.475 μM): 19.95% | tail DNA percentage (MDA-MB-231 cells [3]; 22e 0.95 μM): 38.15% | tail DNA percentage (MDA-MB-231 cells [3]; 22e 1.9 μM): 48.73% | MDA-MB-231 cells invasion, in words (MDA-MB-231 cells [4]): significantly inhibited | IC50 [5]: 1900 ± 180 nM | adhesion of MDA-MB-231 cells, in words (MDA-MB-231 cells [6]): inhibit the adhesion of MDA-MB-231 cells in a concentration-dependent manner | total apoptosis ratio (MDA-MB-231 cells [7]; 22e 0.475 μM): 11.00% | total apoptosis ratio (MDA-MB-231 cells [7]; 22e 0.95 μM): 16.27% | total apoptosis ratio (MDA-MB-231 cells [7]; 22e 1.9 μM): 42.12% | cells in G2/M phase (MDA-MB-231 cells [8]; 22e 0.475 μM): 12.98% | cells in S phase (MDA-MB-231 cells [8]; 22e 0.475 μM): 36.58% | cells in G1 phase (MDA-MB-231 cells [8]; 22e 0.475 μM): 50.44% | cells in G2/M phase (MDA-MB-231 cells [8]; 22e 0.95 μM): 14.53% | cells in S phase (MDA-MB-231 cells [8]; 22e 0.95 μM): 34.59% | cells in G1 phase (MDA-MB-231 cells [8]; 22e 0.95 μM): 50.88% | cells in G2/M phase (MDA-MB-231 cells [8]; 22e 1.9 μM): 21.28% | cells in S phase (MDA-MB-231 cells [8]; 22e 1.9 μM): 36.21% | cells in G1 phase (MDA-MB-231 cells [8]; 22e 1.9 μM): 42.51% | cells in the S phase (in words) (MDA-MB-231 cells [8]; 22e 0.475, 0.95 and 1.9 μM versus control): remained essentially unchanged
